Patent US12110295B2, “WD40 repeat domain protein 5 (WDR5) degradation/disruption compounds and methods of use” (Icahn School of Medicine at Mount Sinai, priority 2018, dated 2024)
“Also recorded” adds a separate entry of the source.

Experiments:
[1] = test system: MIAPACA2 cells; assay: MTT cell proliferation assay in MIAPACA2 cells; format: cell-based; conditions: 6 days, FIG. 11; for proliferation of MIAPACA2 cells: 0.01, 0.03, 0.1, 0.5, 1, 5 and 10 μM
Experimental: Assessment of the cell proliferation effects of WDR5 degraders XF056-132, XF056-173 and XF067-67 in MIAPACA2 cells (FIG. 11). MIAPACA2 cells were treated with DMSO or indicated compounds at 0.01 μM, 0.03 μM, 0.1 μM, 0.5 μM, 1 μM, 5 μM, and 10 μM for 6 days. MTT assay was used for detecting cell proliferation effects.
MIAPACA2 and Hela cells were cultured in DMEM supplemented with 10% FBS and 1% Penicillin/Streptomycin.

[2] = target: WDR5 (Homo sapiens, UniProt P61964); assay: Screening of putative WDR5 degraders by Western blot in MV4;11 and/or MIAPACA2 cells; format: cell-based; design: After WDR5 degrader treatment, cells were collected and lysed; endogenous in cells; host or cells: MV4;11 and/or MIAPACA2; conditions: summary of screening, FIGS. 6-10
How it was run: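 MV4;11 (1×10^6/well) or MIAPACA2 (1×10^5/well) cells treated 18 h with compound at paired doses between 0.1 and 10 μM, DMSO as control. Total lysates immunoblotted for WDR5 with vinculin, tubulin or GAPDH loading controls; fluorescent secondary detection.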

Cc1ncsc1-c1ccc(CNC(=O)[C@@H]2C[C@@H](O)CN2C(=O)[C@@H](NC(=O)CCCCCCCCCNC(=O)c2ccc(-c3ccc(N4C[C@@H](C)N(C)[C@@H](C)C4)c(NC(=O)c4c[nH]c(=O)cc4C(F)(F)F)c3)c(F)c2)C(C)(C)C)cc1 [XF056-173, N-(2′-fluoro-4′-((10-(((S)-1-((2S,4R)-4-hydroxy-2-((4-(4-methylthiazol-5-yl)benzyl)carbamoyl)pyrrolidin-1-yl)-3,3-dimethyl-1-oxobutan-2-yl)amino)-10-oxodecyl)carbamoyl)-4-((3R,5S)-3,4,5-trimethylpiperazin-1-yl)-[1,1′-biphenyl]-3-yl)-6-oxo-4-(trifluoromethyl)-1,6-dihydropyridine-3-carboxamide]
proliferation of MIAPACA2 cells [1]: significantly decreased the cell proliferation; also recorded: significantly reduced the proliferation of MIAPACA2 cells | effective degradation of WDR5 in MV4;11 and/or MIAPACA2 cells [2]: able to effectively degrade WDR5

Cc1ncsc1-c1ccc([C@H](C)NC(=O)[C@@H]2C[C@@H](O)CN2C(=O)[C@@H](NC(=O)CNC(=O)c2ccc(F)c(-c3ccc(N4C[C@@H](C)N(C)[C@@H](C)C4)c(NC(=O)c4c[nH]c(=O)cc4C(F)(F)F)c3)c2)C(C)(C)C)cc1 [XF067-67, N-(2′-fluoro-5′-((2-(((S)-1-((2S,4R)-4-hydroxy-2-(((S)-1-(4-(4-methylthiazol-5-yl)phenyl)ethyl)carbamoyl)pyrrolidin-1-yl)-3,3-dimethyl-1-oxobutan-2-yl)amino)-2-oxoethyl)carbamoyl)-4-((3S,5R)-3,4,5-trimethylpiperazin-1-yl)-[1,1′-biphenyl]-3-yl)-6-oxo-4-(trifluoromethyl)-1,6-dihydropyridine-3-carboxamide]
proliferation of MIAPACA2 cells [1]: significantly decreased the cell proliferation; also recorded: significantly reduced the proliferation of MIAPACA2 cells | cell killing effect, rank among the 3 compounds ([1]; MIAPACA2 cells): the best cell killing effect among the 3 compounds

Cc1ncsc1-c1ccc(CNC(=O)[C@@H]2C[C@@H](O)CN2C(=O)[C@@H](NC(=O)CCCCCCCCCC(=O)N2CCN(Cc3cnc(N4CC=C(c5cc(NC(=O)c6c[nH]c(=O)cc6C(F)(F)F)c(N6C[C@@H](C)N(C)[C@@H](C)C6)cc5F)CC4)nc3)CC2)C(C)(C)C)cc1 [XF078-148, N-(4-fluoro-5-(1-(5-((4-(11-(((S)-1-((2S,4R)-4-hydroxy-2-((4-(4-methylthiazol-5-yl)benzyl)carbamoyl)pyrrolidin-1-yl)-3,3-dimethyl-1-oxobutan-2-yl)amino)-11-oxoundecanoyl)piperazin-1-yl)methyl)pyrimidin-2-yl)-1,2,3,6-tetrahydropyridin-4-yl)-2-((3S,5R)-3,4,5-trimethylpiperazin-1-yl)phenyl)-6-oxo-4-(trifluoromethyl)-1,6-dihydropyridine-3-carboxamide]
effective degradation of WDR5 in MV4;11 and/or MIAPACA2 cells [2]: able to effectively degrade WDR5

C[C@@H]1CN(c2ccc(-c3ccc(C(=O)NCCCCCCCCNc4cccc5c4C(=O)N(C4CCC(=O)NC4=O)C5=O)cc3F)cc2NC(=O)c2c[nH]c(=O)cc2C(F)(F)F)C[C@H](C)N1C (stereo partly drawn) [XF056-186, N-(4′-((8-((2-(2,6-dioxopiperidin-3-yl)-1,3-dioxoisoindolin-4-yl)amino)octyl)carbamoyl)-2′-fluoro-4-((3R,5S)-3,4,5-trimethylpiperazin-1-yl)-[1,1′-biphenyl]-3-yl)-6-oxo-4-(trifluoromethyl)-1,6-dihydropyridine-3-carboxamide]
effective degradation of WDR5 in MV4;11 and/or MIAPACA2 cells [2]: able to effectively degrade WDR5

Cc1ncsc1-c1ccc(CNC(=O)[C@@H]2C[C@@H](O)CN2C(=O)[C@@H](NC(=O)CCC(=O)N2CCN(Cc3cnc(N4CC=C(c5cc(NC(=O)c6c[nH]c(=O)cc6C(F)(F)F)c(N6C[C@@H](C)N(C)[C@@H](C)C6)cc5F)CC4)nc3)CC2)C(C)(C)C)cc1 [XF078-141, N-(4-fluoro-5-(1-(5-((4-(4-(((S)-1-((2S,4R)-4-hydroxy-2-((4-(4-methylthiazol-5-yl)benzyl)carbamoyl)pyrrolidin-1-yl)-3,3-dimethyl-1-oxobutan-2-yl)amino)-4-oxobutanoyl)piperazin-1-yl)methyl)pyrimidin-2-yl)-1,2,3,6-tetrahydropyridin-4-yl)-2-((3S,5R)-3,4,5-trimethylpiperazin-1-yl)phenyl)-6-oxo-4-(trifluoromethyl)-1,6-dihydropyridine-3-carboxamide]
effective degradation of WDR5 in MV4;11 and/or MIAPACA2 cells [2]: able to effectively degrade WDR5

Cc1ncsc1-c1ccc(CNC(=O)[C@@H]2C[C@@H](O)CN2C(=O)[C@@H](NC(=O)CCOCCOCCOCCOCCNC(=O)CCC(=O)N2CCN(c3ccc(-c4cc(NC(=O)c5c[nH]c(=O)cc5C(F)(F)F)c(N5C[C@@H](C)N(C)[C@@H](C)C5)cc4F)cn3)CC2)C(C)(C)C)cc1 [XF067-146, N-(4-fluoro-5-(6-(4-((S)-3-((2S,4R)-4-hydroxy-2-((4-(4-methylthiazol-5-yl)benzyl)carbamoyl)pyrrolidine-1-carbonyl)-2,2-dimethyl-5,21-dioxo-8,11,14,17-tetraoxa-4,20-diazatetracosan-24-oyl)piperazin-1-yl)pyridin-3-yl)-2-((3S,5R)-3,4,5-trimethylpiperazin-1-yl)phenyl)-6-oxo-4-(trifluoromethyl)-1,6-dihydropyridine-3-carboxamide]
effective degradation of WDR5 in MV4;11 and/or MIAPACA2 cells [2]: able to effectively degrade WDR5

C[C@@H]1CN(c2ccc(-c3cc(CN4CCN(CCNC(=O)CCOCCOCCNc5cccc6c5C(=O)N(C5CCC(=O)NC5=O)C6=O)CC4)ccc3F)cc2NC(=O)c2c[nH]c(=O)cc2C(F)(F)F)C[C@H](C)N1C (stereo partly drawn) [XF078-26, N-(5′-((4-(2-(3-(2-(2-((2-(2,6-dioxopiperidin-3-yl)-1,3-dioxoisoindolin-4-yl)amino)ethoxy)ethoxy)propanamido)ethyl)piperazin-1-yl)methyl)-2′-fluoro-4-((3S,5R)-3,4,5-trimethylpiperazin-1-yl)-[1,1′-biphenyl]-3-yl)-6-oxo-4-(trifluoromethyl)-1,6-dihydropyridine-3-carboxamide]
effective degradation of WDR5 in MV4;11 and/or MIAPACA2 cells [2]: able to effectively degrade WDR5
